Consider four compounds from US20240009175A9, “TETRAZOLE DERIVATIVES” (Merck Patent GmbH, priority 2020, published 2024).

In general, pIC50 refers to the IC50 on a negative log10 scale, so that one unit is a factor of ten.

One data set addresses human rec ACSS2 (Homo sapiens (Human), UniProt Q9NR19). Briefly: Biochemical activity ACSS2 assay (AMP-Glo). The following applies: human recombinant ACSS2, AMP-Glo, 180 min at 37° C. An excerpt: Biochemical Activity ACSS2 Assay (IC50 ACSS2 Biochemical)
The biochemical activity assay for ACSS2 is based on the detection of released AMP by AMP-Glo™ Assay kit (Promega, Madison). The assay is run in three steps: the enzymatic reaction in which human rec ACSS2 activates acetate with ATP and Coenzyme A as cosubstrates to acetyl-CoA thereby releasing AMP and the detection reaction of AMP by AMP Glo assay in which after the destruction of the residual ATP with AMP Glo reagent 1 produced AMP is converted to ATP that is measured in a luciferase assay system (detection reagent). The ACSS2 activity correlates with the detected luminescence signal.
The assay was performed in Perkin Elmer 384 well white Proxiplates in a total volume of 8 μl.
1 nM (fc)C-term myc tagged ACSS2 (human, recombinant, Origene, Rockville, US) and a mixture of 100 μM (fc) ATP, 100 μM (fc) Coenzyme A and 500 μM (fc) sodium acetate were incubated in a total volume of 5 μl (50 mM Hepes, 1 mM Mg-chloride, 150 mM NaCl, 1 mM DTT, 0.01% (w/v) BSA, 0.3% DMSO, pH 7.5) in the absence or presence of the test compound (10 dilution concentrations, start conc 30 μM) for 180 min at 37° C. The reaction was stopped and residual ATP destroyed by the addition of 1 μl AMP Glo reagent solution (Promega, Madison, US). After 1h incubation at room temperature 2 μl of AMP Glo detection reagent was added and the assay was incubated for 0.75 hr at room temperature. The luminescence signal was measured with an Envision multimode reader (Perkin Elmer LAS Germany GmbH) at 700 nm in luminescence mode. The full value used was the inhibitor-free reaction. The pharmacological zero value was generated by addition of ACSS2 inhibitor (Ac-CoA Synthase Inhibitor—CAS 508186-14-9-Calbiochem) in a final concentration of 5 μM. The inhibitory values (IC50) were determined using the program Assay Analyzer® from GeneData.

Data set [1] deals with T1, ACSS2 (Homo sapiens (Human), UniProt Q9NR19). Description: Cellular assay of 14C acetate incorporation into fatty acids (IC50 ACSS2 cellular lipids). Particulars: HCT-15 cells. It counts as cell-based. How it is done:
Cellular Assay of ^14C Acetate Incorporation into Fatty Acids (IC50 ACSS2 Cellular Lipids)
This protocol describes a cellular assay capable to quantify endogenous fatty acid synthesis activity in the human HCT-15 cancer cell line following the incorporation of extracellularly administered radiolabeled ^14C acetate with a scintillation proximity based read out on extracted fatty acids.
HCT-15 cells were grown in RPMI 1640 (Gibco) supplemented with 2 mM glutamine, 1 mM sodium pyruvate 10 mM HEPES and 10% FCS (heat-inactivated) passaged every 2-3 days to remain a subconfluent, vital culture. A working cell bank was prepared with each aliquot containing 1×10^7 viable cells. After thawing, these cells are dilute immediately 1:20 in pre-warmed (37° C.) culture medium. Cells are collected by centrifugation at 200×g for 5 min, and the supernatant is replaced by 30 mL of fresh culture medium per aliquot to obtain a cell suspension containing 350000 cells/ml. From this cell suspension 100 μL are dispersed into each well of a collagen coated 96 well plate, (black, clear bottom, PS, F-bottom, Greiner) and culture for 24 h (37° C., 5% CO2). After incubation the culture medium is removed and the wells are washed once with 100 μL PBS++(supplemented with Mg^2+/Ca^2+, Gibco) and 50 μL assay medium (RPMI 1640+10 mM HEPES) are added to each well. Compounds serial dilutions are prepared from 10 mM stock solutions in DMSO using a fixed dilution factor (usually 1:3). After preparation of the dilution series in DMSO, the individual dilutions are further diluted in the assay medium. This working dilution is prepared such, that the concentration is 7× of the final concentration in the assay. The maximal DMSO concentration in the final assay is 0.1%.
To each well 10 μL compound working dilution or DMSO blank are added and the cells are cultured for 2 h (37° C., 5% CO2). Then 10 μL AlamarBlue reagent (Invitrogen) containing 14 μCi/mL 14C-acetate (Perkin Elmer) are added to each well (70 μl total volume) and cells are again cultured for 2 h. Cell viability is verified by measuring the AlamarBlue fluorescence (Tecan Safire, ex: 544 nm/em: 590 nm). After incubation the culture medium is removed and the wells are carefully washed once with cold 100 μL PBS++. For cell lysis and fatty acid recovery 50 μl 0.1 M NaOH and 0.1% Triton-X100 are added per well. The plate is sealed with PlateLoc (clear peelable heat seal, Agilent) and incubate at 70° C. for 16-24 h. After cooling to room temperature, the plates are centrifuged for 1 min at 1000 rpm and the plate seals are removed. For acidification 150 μL 0.1 M HCl are added to each well, mixed and 150 μL of the mixture are transferred into a 96 well FlashPlate (Perkin Elmer). The plates are sealed with TopSeal-A (Perkin Elmer). To allow for the fatty acid binding to the well surfaces the plates are incubate for 4 h at 70° C. After cooling to room temperature, the plates are centrifuged for 1 min at 1000 rpm and stored for 0.5-2h at room temperature in the dark. Radioactivity from ^14C incorporation into fatty acids in the wells is measured as CPM count in a MicroBeta scintillation counter (Perkin Elmer).

Data set [2] has as its target T1, ACSS2. Description: Cellular assay of 14C acetate incorporation into histones (IC50 ACSS2 cellular histone). It counts as cell-based. The following applies: HCT-15 cells. An excerpt:
Cellular Assay of ^14C Acetate Incorporation into Histones (IC50 ACSS2 Cellular Histone)
This protocol describes a cellular assay capable to quantify endogenous histone acetylation activity in the human HCT-15 cancer cell line following the incorporation of extracellularly administered radiolabeled ^14C acetate with a scintillation based read out on acid extracted histones.
HCT-15 cells are trypsinized, washed and suspended in DMEM culture medium supplemented with penicillin/streptomycin (100 U/mL), sodium pyruvate (1 mM), and 10% FBS
Compounds serial dilutions are prepared in 96-well V-bottom microplate from 10 mM stock solutions in DMSO. From these dilutions 0.5 μl are transferred to a fresh plate including pure DMSO as negative control. The dilutions are prepared such, that the final concentration in the assay is 1/400 of the concentration in the serial dilution. The final DMSO concentration in the assay is 0.25%.
The cell suspension is seeded at densities of 2×10^5 cells per 170 μl into individual wells of a 96 well plate each containing 0.5 μl aliquots of compound serial dilutions and are kept for 1 h in a cell incubator. To each well 30 μL of a mixture containing 0.5 mCi/mL of ^14C-acetate with full medium are added. Then, the wells are incubated for 3 hrs in the cell incubator.
Further steps of the procedure should be conducted on ice or instrumentations precooled to 4° C. Cells are sedimented in the 96-well V-bottom microplate by centrifugation (Eppendorf 5804 R) at 1200 rpm for 5 min. The supernatant is removed and the cells are washed twice with 200 μL of PBS-NaB (5 mM sodium butyrate) buffer by iterative resuspension and centrifugation. Finally, the cells are resuspended in 50 μL of TEB (PBS-NaB+0.5% Triton X-100) and left on ice for 10 minutes. After centrifugation at 2300 rpm for 10 minutes at 4° C. the supernatant is removed, the remaining pellet is suspended in 50 μL of 0.2M HCl and incubated over night at 4° C. After incubation the well plate is shaken for 2 minutes in a MTP plate shaker set to 1200 rpm and then centrifuged at 3700 rpm for 10 mins. The lysate is carefully aspirated (˜43 μL) and transferred into a white MTP plate (Greiner bio-one 65509). 90 μL of Ultima Gold XR scintillation cocktail are added and the plates are sealed with a transparent cover tape before mixing vigorously using plate shaker set to 1200 rpm. Radioactivity from ^14C incorporation in the wells is measured as CPM count in a MicroBeta Trilux luminescence counter.

The test system of the next data set is CHO-K1 cells. Description: Micronucleus assay (MNT) in vitro. The following applies: 24 hrs treatment, 0.2 μM to 100 μM. Format: cell-based. Set-up: key: A: negative, putative negative (micronuclei detected beyond threshold of 60% cyctotoxicity); B: positive. How it is done:
The in vitro MNT assay is performed in CHO-K1 cells due to their stable and well-characterized karyotype, high sensitivity and suitability for a high content imaging approach. They have a basal spontaneous micronucleus frequency of 3-4%.
24 hrs after plating CHO-K1 cells are treated with test compounds for 24 hrs (in duplicates; fixed concentration ranges from 0.2 μM to 100 μM in 2-fold dilution steps). After a medium change cells are incubated for 24 hrs with Cytochalasin B to block cytokinesis and are then fixed and nuclei/micronuclei visualized with a DNA stain. Images are acquired with the Molecular Devices high content imagers IXU or IXM and are analyzed with the dedicated MetaXpress software micronucleus module. Criteria for scoring of micronuclei (MN) are the following: • diameter of the MN should be less than ⅓ of the main nucleus • MN should be separated from or marginally overlap with main nucleus (=no blebs) • MN should have similar staining as the main nucleus
At least 1000 binucleated cells are evaluated per treatment replicate. Mitomycin C is used as reference stimulator of micronucleus formation. Cytotoxicity is evaluated in parallel and defined by comparing total nuclei count in compound-treated samples to neutral control samples treated with vehicle only (1% DMSO) (100% cytotoxicity means all cells are dead or lost).
A test compound is regarded as POSITIVE if generation of micronuclei and exhibition of less than 60% cytotoxicity at the same concentration can be observed.
Compounds are scored only in the soluble concentration range.
Experimental data of the compounds shown in Table 1 in the MNT assay are shown in Table 2 below and classified in the following groups: […]

pIC50: −log10 of the molar value.

human rec ACSS2, sequence (Q9NR19 whole entry): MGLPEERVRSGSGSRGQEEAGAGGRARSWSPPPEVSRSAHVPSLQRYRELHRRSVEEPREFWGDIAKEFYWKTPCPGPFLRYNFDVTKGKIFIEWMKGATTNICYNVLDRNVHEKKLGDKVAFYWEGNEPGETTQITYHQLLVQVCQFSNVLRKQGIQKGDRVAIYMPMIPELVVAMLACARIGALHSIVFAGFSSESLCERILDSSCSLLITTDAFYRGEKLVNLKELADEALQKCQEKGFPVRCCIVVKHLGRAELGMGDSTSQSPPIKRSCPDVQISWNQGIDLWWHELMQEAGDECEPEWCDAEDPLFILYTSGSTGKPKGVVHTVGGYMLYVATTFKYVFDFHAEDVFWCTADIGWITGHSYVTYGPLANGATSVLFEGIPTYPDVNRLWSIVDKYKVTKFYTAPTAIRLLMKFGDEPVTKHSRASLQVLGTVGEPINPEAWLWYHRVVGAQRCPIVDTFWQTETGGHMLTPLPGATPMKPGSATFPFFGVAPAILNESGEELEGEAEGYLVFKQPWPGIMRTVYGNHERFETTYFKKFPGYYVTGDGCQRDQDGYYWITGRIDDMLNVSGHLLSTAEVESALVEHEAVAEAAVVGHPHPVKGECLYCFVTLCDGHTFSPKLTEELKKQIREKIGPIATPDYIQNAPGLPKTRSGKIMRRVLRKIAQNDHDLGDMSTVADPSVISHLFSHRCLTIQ
T1 sequence (Q9NR19 whole entry): as above

With `CCn1c(C(O)(c2ccccc2)c2nccs2)nc2nc(OC)c(-c3nnn[nH]3)cc21` (racemic) [Compound 31, [1-ethyl-5-methoxy-6-(1H-1,2,3,4-tetrazol-5-yl)-1H-imidazo[4,5-b]pyridin-2-yl](phenyl)(1,3-thiazol-2-yl)methanol], the pIC50 was 8.00 to 9.00 on human rec ACSS2, 9.00 to 11.00 on ACSS2 [1] and 8.00 to 9.00 at ACSS2 [2].

In the case of `CCn1c(C(O)(c2ccccc2)c2ccccc2)nc2nc(F)c(-c3nnn[nH]3)cc21` [Compound 45, [1-ethyl-5-fluoro-6-(1H-1,2,3,4-tetrazol-5-yl)-1H-imidazo[4,5-b]pyridin-2-yl]diphenylmethanol], the pIC50 is 7.00 to 8.00 on human rec ACSS2, 8.00 to 9.00 on ACSS2 [1] and 5.00 to 7.00 on ACSS2 [2].

Turning to `Cc1nc2nc(C(O)(c3ccccc3)c3ccccc3)n(C)c2cc1-c1nnn[nH]1` [Compound 56, [1,5-dimethyl-6-(1H-1,2,3,4-tetrazol-5-yl)-1H-imidazo[4,5-b]pyridin-2-yl]diphenylmethanol], the pIC50 on human rec ACSS2 was 8.00 to 9.00; against ACSS2 [1], 7.00 to 8.00; at ACSS2 [2], 5.00 to 7.00.

Consider `CCn1c(C(O)(c2ccccc2F)c2ccccc2F)nc2ncc(-c3nnn[nH]3)cc21` [Compound 61, [1-ethyl-6-(1H-1,2,3,4-tetrazol-5-yl)-1H-imidazo[4,5-b]pyridin-2-yl]bis(2-fluorophenyl)methanol], for which the results for the pIC50 at human rec ACSS2 and at ACSS2 [2] were 7.00 to 8.00 and 5.00 to 7.00, respectively. The MNT entry in the data set on CHO-K1 cells is reported as “A”.
